# Laboratory results published in US5639887A, “MDR reversal agents” (priority 1995, dated 1997).
# Assays:
# [1] = system: bisantrene-resistant human ovarian carcinoma cells S1-B1-20 (OVCAR-3 subclone); assay: Screening assay for reversal agents: Difference Score with/without 20 μM bisantrene; format: cell-based; settings: alone vs with 20 μM bisantrene, 3 days, difference in % cell survival
# Method: Such cells are sorted by a fluorescent activated cell sorter (FACS; Becton Dickinson Model 440).
# Cells, prepared by trypsinization, are plated at 20,000 cells/well in media with and without bisantrene. Then, test agents at varying concentrations are added to the cells. […] Completed plates are incubated for 3 days at 37° C. in a moisturized 7% CO2 atmosphere. […] Dye content/well is read at 540 nm in a microtiter reader. Values are electronically processed, % cell survival compared to untreated cells is computed, and the results are expressed as the difference between these values. Experiments are run in the presence of the test agent alone and the test agent in combination with 20 μM bisantrene. The Difference Score between those two experiments is reported below for 3 different concentrations of test agent.
# [2] = system: vincristine resistant murine leukemia P388/VCR; assay: In vivo evaluation of MDR-1 reversal agents against vincristine resistant murine leukemia P388/VCR implanted IP in CDF1 mice; settings: for % ILS: vs vincristine alone
# Method: Tumor cell ascites are harvested 5-7 days later. For drug testing, groups of 10-15 CDF1 mice (DBA/2×Balb/cF1 hybrids; Charles River Laboratories, Inc) are injected IP with 0.5 ml of diluted ascitic fluid containing 1×10^6 viable P388/VCR tumor cells. […] Drugs are administered once daily, by the IP, intravenous (IV) or oral route, starting one day after tumor implantation and using a variety of treatment schedules. Mice are weighed periodically, survival is recorded for 30 days post tumor implantation, and Mean survival times are calculated for all groups of mice. Statistical analysis of Mean survival times is carried out using the Student t-test.
# [3] = system: human epidermoid carcinoma KB/8.5; assay: In vivo evaluation of MDR-1 reversal agents against human epidermoid carcinoma KB/8.5 implanted SC in athymic nude mice; set-up: species or system human (tumor in athymic nude mice)
# Method: The multiple drug resistant human epidermoid carcinoma KB/8.5 is propagated in medium containing colchicine (10 nanograms/ml) to maintain drug resistance. Colchicine is removed from the medium, for two cell passages, prior to subcutaneous (SC) implant of 8×10^6 KB/8.5 tumor cells into athymic "nude" mice (Harlan Sprague Dawley). […] Individual mouse tumor mass and mean tumor mass for each treatment group is determined on Day +14 and Day +21 of the test period. For each treatment group, the Relative Tumor Growth, RTG, is calculated as follows: [formula]
# Statistical analysis of Log Relative Tumor Growth is carried out using the Student t-test. Transformation of the data from absolute mean tumor mass (mgs tumor mass) to Log Relative Tumor Growth prior to statistical analysis has two beneficial effects:
# 1) it corrects the data for differences in mean tumor mass of the different treatment groups at the start of the test period (Day 0); and
# 2) the Log transformation of the data more adequately reflects the exponential growth pattern of the SC tumors and makes the use of the Student t-test more appropriate.
# [4] = vincristine 0.2 + compound 75 mg/kg, days 1-7, IP
# [5] = vincristine 0.2 + compound 100 mg/kg, days 1-7, ORAL
# [6] = vincristine 0.2 + compound 200 mg/kg, days 1-7, ORAL
# [7] = vincristine 0.4 + compound 25.0 mg/kg, days 1-3, IP
# [8] = vincristine 0.4 + compound 50.0 mg/kg, days 1-3, IP
# [9] = doxorubicin 8 mg/kg IV + compound 50 mg/kg/dose SC at -2 h and +2 h
# [10] = doxorubicin 8 mg/kg IV + compound 100 mg/kg/dose SC at -2 h and +2 h
# [11] = vincristine 0.2 + compound 6.3 mg/kg, days 1-7, IP
# [12] = doxorubicin 8 mg/kg IV + compound 75 mg/kg/dose SC at -2 h and +2 h
# [13] = doxorubicin 8 mg/kg IV + compound 200 mg/kg/dose SC at -2 h and +2 h
# [14] = vincristine 0.2 + compound 25 mg/kg, days 1-5, IP
# [15] = vincristine 0.2 + compound 50 mg/kg, days 1-5, IP
# [16] = vincristine 0.4 + compound 25 mg/kg, days 1-3,6,7, IV
# [17] = vincristine 0.4 + compound 50 mg/kg, days 1-3,6,7, IV
# [18] = vincristine 0.6 + compound 6.3 mg/kg, days 1,5,9, IP
# [19] = vincristine 0.6 + compound 25 mg/kg, days 1,2, IV
# [20] = vincristine 0.6 + compound 25 mg/kg, days 1,5,9, IP
# [21] = vincristine 0.6 + compound 50 mg/kg, days 1,2, IV
# [22] = vincristine 0.8 + compound 25 mg/kg, days 1,2, IV
# [23] = doxorubicin 8 mg/kg IV + compound 25 mg/kg/dose SC at -2 h and +2 h
# [24] = doxorubicin 8 mg/kg IV + compound 150 mg/kg/dose SC at -2 h and +2 h
# [25] = doxorubicin 8 mg/kg IV + compound […] SC at -2 h and +2 h
# [26] = vincristine 0.2 + compound 25 mg/kg, days 1-7, IP
# [27] = vincristine 0.2 + compound 50 mg/kg, days 1-7, IP
# [28] = doxorubicin 8 mg/kg IV + compound 200 mg/kg/dose SC x2
compound,measurement,setting,value
"2-[6-Cyano-6(3,4-dimethoxyphenyl)-6-[(4-methylphenyl)-thio]hexyl]-1,2,3,4-tetrahydo-5-methoxy-7-isoquinoline trifluoromethanesulfonic acid [Example 102]",Difference Score at 1 microM,[1]; test agent 1 microM,30
same,Difference Score at 10 microM,[1]; test agent 10 microM,82
same,Difference Score at 20 microM,[1]; test agent 20 microM,82
"COc1ccc(C(C#N)(CCCN2CCc3cc(OC)c(OC)cc3C2)Sc2ccc(C)cc2)cc1OC (stereo not drawn) [Example 3, α-(3,4-Dimethoxyphenyl)-3,4-dihydro-6,7-dimethoxy-α-[(4-methylphenyl)thio]-2(1H)-isoquinolinepentanenitrile]",MST,[2]; [4],16.7 days
same,MST,[2]; [5],15.8 days
same,MST,[2]; [6],16.4 days
same,MST,[2]; [7],15.6 days
same,MST,[2]; [8],16.3 days
same,% ILS,[2]; [4],+21%
same,% ILS,[2]; [5],+15%
same,% ILS,[2]; [6],+20%
same,% ILS,[2]; [7],+10%
same,% ILS,[2]; [8],+15%
same,Relative Tumor Growth Day 21,[3]; [9],8.38
same,Relative Tumor Growth Day 21,[3]; [10],8.87
"COc1ccc(C(C#N)(CCCCCCCCCCCN2CCc3cc(OC)c(OC)cc3C2)Sc2ccc(C)cc2)cc1OC (stereo not drawn) [Example 14, α-(3,4-Dimethoxyphenyl)-3,4-dihydro-6,7-dimethoxy α-[(4-methylphenyl)thio]-2(1H)-isoquinoline tridecanenitrile]",MST,[2]; [11],14.3 days
same,% ILS,[2]; [11],+14%
same,Relative Tumor Growth Day 21,[3]; [12],5.86
same,Relative Tumor Growth Day 21,[3]; [13],7.84
"COc1ccc(C(C#N)(CCCCCN2CCc3cc(OC)c(OC)cc3C2)Sc2ccc(C)cc2)cc1OC (stereo not drawn) [Example 17, α-(3,4-Dimethoxyphenyl)-3,4-dihydro-6,7-dimethoxy-α-[(4-methylphenyl)thio]-2(1H)-isoquinolineheptanenitrile]",MST,[2]; [14],16.8 days
same,MST,[2]; [15],16.1 days
same,MST,[2]; [16],13.3 days
same,MST,[2]; [17],13.4 days
same,MST,[2]; [18],12.9 days
same,MST,[2]; [19],10.1 days
same,MST,[2]; [20],15.8 days
same,MST,[2]; [21],11.1 days
same,MST,[2]; [22],11.1 days
same,% ILS,[2]; [14],+22%
same,% ILS,[2]; [15],+17%
same,% ILS,[2]; [16],+17%
same,% ILS,[2]; [17],+18%
same,% ILS,[2]; [18],+12%
same,% ILS,[2]; [19],+5%
same,% ILS,[2]; [20],+38%
same,% ILS,[2]; [21],+16%
same,% ILS,[2]; [22],+13%
same,Relative Tumor Growth Day 21,[3]; [23],9.55
same,Relative Tumor Growth Day 21,[3]; [24],3.35
same,Relative Tumor Growth Day 21,[3]; [13],5.30
same,Relative Tumor Growth Day 21,[3]; [25],8.58
COc1ccc(C(C#N)(CCCCCN2CCc3cc4c(cc3C2)OCO4)Sc2ccc(C)cc2)cc1OC (stereo not drawn) [Example 21],MST,[2]; [26],14.5 days
same,% ILS,[2]; [26],+16%
COc1ccc2c(c1)CCN(CCCCCC(C#N)(Sc1ccc(C)cc1)c1ccc(OC)c(OC)c1)C2 (stereo not drawn) [Example 22],MST,[2]; [11],15.2 days
same,% ILS,[2]; [11],+20%
"COc1ccc(C(C#N)(CCCCCN2Cc3cc(OC)c(OC)cc3C2)Sc2ccc(C)cc2)cc1OC (stereo not drawn) [Example 26, α-(3,4-Dimethoxyphenyl)-1,3-dihydro-5,6-dimethoxy-α-[(4-methylphenyl)thio]-2H-isoindole-2-heptanenitrile]",MST,[2]; [11],13.8 days
same,MST,[2]; [26],15.8 days
same,% ILS,[2]; [11],+23%
same,% ILS,[2]; [26],+41%
same,Relative Tumor Growth Day 21,[3]; [12],3.49
same,Relative Tumor Growth Day 14,[3]; [24],Toxic
same,Relative Tumor Growth Day 21,[3]; [24],Toxic
same,Relative Tumor Growth Day 14,[3]; [13],Toxic
same,Relative Tumor Growth Day 21,[3]; [13],Toxic
"COc1ccc(C(C#N)(CCCCCN2CCc3cc(OC)c(OCCn4ccnc4)cc3C2)Sc2ccc(C)cc2)cc1OC (stereo not drawn) [Example 33, α-(3,4-Dimethoxyphenyl)-3,4-dihydro-7-[2-(1H-imidazol-1-yl)ethoxy]-6-methoxy-α-[(4-methylphenyl)thio]-2(1H)-isoquinolineheptanenitrile]",MST,[2]; [26],15.6 days
same,MST,[2]; [27],16.6 days
same,% ILS,[2]; [26],+39%
same,% ILS,[2]; [27],+48%
"COc1ccc(C(C#N)(CCCCCCN2CCc3cc(OC)c(OC)cc3C2)Sc2ccc(C)cc2)cc1OC (stereo not drawn) [Example 37, α-(3.4-Dimethoxyphenyl)-3,4-dihydro-6,7-dimethoxy-α-[(4-methylphenyl)thio]-2(1H)-isoqutnolineoctanenitrile]",MST,[2]; [26],14.7 days
same,% ILS,[2]; [26],+17%
"COc1ccc(C(CCCCCN2CCc3cc(OC)c(OC)cc3C2)Sc2ccc(C)cc2)cc1OC (stereo not drawn) [Example 41, 2-[6-(3,4-Dimethoxyphenvl]-6-[(4-methylphenyl)thio]-hexyl]-1,2,3,4-tetrahydro-6,7-dimethoxyisoquinoline]",MST,[2]; [11],14.1 days
same,% ILS,[2]; [11],+13%
same,Relative Tumor Growth Day 21,[3]; [23],6.15
same,Relative Tumor Growth Day 21,[3]; [12],8.54
same,Relative Tumor Growth Day 21,[3]; [13],4.57
same,"toxicity remark (tox), Day 14",[3]; [28],tox
same,"toxicity remark (tox), Day 21",[3]; [28],tox
same,Relative Tumor Growth Day 21,[3]; [25],7.27
"COc1ccc2c(c1)CCN(CCCCCC(Sc1ccc(C)cc1)c1ccc(OC)c(OC)c1)C2 (stereo not drawn) [Example 46, 2-[6-(3,4-Dimethoxyphenyl)-6-[(4-methylphenyl)thio]-hexyl]-1,2,3,4-tetrahydro-6-methoxyisoquinoline]",MST,[2]; [26],16.7 days
same,% ILS,[2]; [26],+36%
same,Relative Tumor Growth Day 21,[3]; [23],9.65
same,Relative Tumor Growth Day 21,[3]; [9],8.83
same,Relative Tumor Growth Day 21,[3]; [12],10.23
same,Relative Tumor Growth Day 21,[3]; [10],10.91
same,Relative Tumor Growth Day 21,[3]; [13],8.99
"COc1cc2c(cc1OC)CN(CCCCCCC(Sc1ccccc1)c1ccccc1)CC2 (stereo not drawn) [Example 112, 1,2,3,4-Tetrahydro-6,7-dimethoxy-2-[7-phenyl-7-(phenylthio]heptyl]isoquinoline]",MST,[2]; [26],16.3 days
same,MST,[2]; [27],14.2 days
same,% ILS,[2]; [26],+45%
same,% ILS,[2]; [27],+26%
"CC[C@]1(O)C[C@H]2CN(CCc3c([nH]c4ccccc34)[C@@](C(=O)OC)(c3cc4c(cc3OC)N(C=O)[C@H]3[C@@](O)(C(=O)OC)[C@H](OC(C)=O)[C@]5(CC)C=CCN6CC[C@]43[C@@H]65)C2)C1 [Vincristine, reference compound]",MST,"[2]; vincristine alone 0.6 mg/kg, days 1,2, IV",9.6 days
same,MST,"[2]; vincristine alone 0.8 mg/kg, days 1,2, IV",9.8 days
